Where two headings read alike, the source gives them in different places. Positions of bridges follow the written chain, without caps; N, C: chain ends. Residues, ends and D or L forms follow the SMILES beside them.
Key:
human IR-A (holoIR-A) = target: T1, human IR-A (holoIR-A) (Homo sapiens, UniProt P06213); test: holoIR-A competitive radioligand binding assay (scintillation proximity assay); details: for Ki: IM172N22(-) mutant peptide set; for reduction in ki for hIR-A on substitution: relative to control peptide IM172N22 devoid of N-terminal phenylacetylation
T1 construct: expressed in transfected cells; host or cells: HEK293 (ATCC #CRL-1573), stably transfected; membrane preparation
Description: Cellular membranes were prepared from human embryonic kidney (HEK293; ATCC #CRL-1573) cells stably transfected with cDNA corresponding to human IR-A (holoIR-A) plus a C-terminal C9 tag ([…]) inserted within a pcDNA3.1 plasmid (Invitrogen), with positive clones selected with 800 μg mL^−1 neomycin and confirmed by Western Blot. Frozen cell pellets were thawed in ice-cold homogenization/resuspension buffer (50 mM Tris-HCl, pH 7.5) containing one cOmplete® protease inhibitor tablet with EDTA (Roche Diagnostics) per 50 mL buffer. Cells were homogenized with an overhead motor-driven Teflon-glass homogenizer using 15–20 strokes, followed by centrifugation at 1100 × g for 10 min at 4 °C. The supernatant was saved on ice, pellets were homogenized as before, and centrifuged at 1100 × g for 10 min at 4 °C. Both supernatants were combined and subsequently centrifuged at 35,000 × g for 60 min at 4 °C. The pellet was resuspended in buffer (4 to 5 mL g^−1 of starting cell paste) containing protease inhibitors and quick frozen in liquid nitrogen prior to storage at −80 °C. Protein concentration was determined using a BCA kit (Thermo Scientific) with bovine serum albumin (BSA) as standard.
The assays were performed with a scintillation proximity assay (SPA) method using polyvinyltoluene (PVT) wheat germ agglutinin-coupled SPA beads (Perkin Elmer). Assay buffer containing 50 mM Tris-HCl (pH 7.5), 150 mM NaCl, 0.1% w/v fatty-acid free BSA was used for all compound testing and reagent preparation. Ten-point concentration response curves with three-fold serial dilutions of test samples or controls were prepared in the assay buffer. […] Plates were sealed and shaken for 1 min on a plate shaker. Following a 10-h incubation and bead settling period at room temperature, radioactivity was determined using a MicroBeta Trilux scintillation counter (Perkin Elmer) and expressed as counts per minute (CPM). […] Samples were tested in three independent assay runs on three different days.
All test sample concentration responses were normalized to the control response and calculated as a percent of the maximal response after correcting for nonspecific binding as shown below: %Specific Inhibition=100%−[(CPM−MIN)/(MAX−MIN)×100%]
Percent specific binding (y-axis) was plotted vs log concentration of compound (x-axis) using Prism Version 9.3.1 (GraphPad Software). Individual measurements are provided as Source Data.

[1] = target: T2, human holoIR-A over-expressed in HEK293 cells (Homo sapiens, UniProt P06213); test: Inhibition of hIR phosphorylation by peptides, co-incubated with BHI at its EC50 (ELISA); format: cell-based; details: for hIRA Phosph IC50 Run 1 / hIRA Phosph IC50 Run 2 / hIRA Phosph IC50 Run 3: inhibition of insulin-stimulated phosphorylation; for hIRA Phosph IC50 Run 1: BHI at its EC50, run 1; for hIRA Phosph IC50 Run 2: BHI at its EC50, run 2; for hIRA Phosph IC50 Run 3: BHI at its EC50, run 3; for IC50: read-out: hIRA Phosph IC50 Mean
T2 construct: expressed in transfected cells; host or cells: HEK293, stably transfected
Description: Phosphorylation was quantified using an ELISA technique. Ninety-six well, flat-bottom microplates (Greiner Bio-One) were pre-coated with 2 µg mL^−1 anti-C9 monoclonal antibody (Rho 1D4; University of British Columbia)[27] in 20 mM sodium carbonate, pH 9.6, at 4 °C for overnight prior to the assay. On the assay day, plates were washed 3× with 0.1% Tween in 50 mM Tris Buffer Saline, pH 7.5 (TBST), and then blocked for greater than 1 h at room temperature (RT) with 1% BSA (Sigma) in TBST.
Stably transfected HEK293 cells over-expressing human holoIR-A containing a C-terminal C9 epitope tag ([…]), were plated at 6 × 10^4 cells per well serum-starved using 0.1% BSA in DMEM (Gibco) for overnight at standard tissue culture condition. […] After a 15-min incubation in lysis buffer at 4 °C, the lysate was transferred to anti-C9 antibody coated capture plate (Rho 1D4; University of British Columbia)[27]. […] After a 1 h incubation at room temperature, the secondary antibody was removed by washing 3× with TBST. Signal detection occurred with the addition of TMB, an HRP substrate (Pierce). After 5–10 min, the reaction was stopped by adding an equal volume of 2 M H2SO4, and the absorbance readings at 450 nm (A450) were recorded using a Envision plate reader (PerkinElmer). Samples were tested in three independent assay runs on three different days.
Percent specific response (y-axis) was plotted versus the log concentration of compound (x-axis) using Prism Version 9.3.1 (GraphPad Software). Individual measurements are provided as Source Data.

[2] = mean of 3 runs, read-out: hIRA Binding Ki Mean
[3] = run 1, read-out: hIRA Binding Ki Run 1
[4] = run 2, read-out: hIRA Binding Ki Run 2
[5] = run 3, read-out: hIRA Binding Ki Run 3

T1 sequence (P06213 28-1370 isoform P06213-2 limits assumed): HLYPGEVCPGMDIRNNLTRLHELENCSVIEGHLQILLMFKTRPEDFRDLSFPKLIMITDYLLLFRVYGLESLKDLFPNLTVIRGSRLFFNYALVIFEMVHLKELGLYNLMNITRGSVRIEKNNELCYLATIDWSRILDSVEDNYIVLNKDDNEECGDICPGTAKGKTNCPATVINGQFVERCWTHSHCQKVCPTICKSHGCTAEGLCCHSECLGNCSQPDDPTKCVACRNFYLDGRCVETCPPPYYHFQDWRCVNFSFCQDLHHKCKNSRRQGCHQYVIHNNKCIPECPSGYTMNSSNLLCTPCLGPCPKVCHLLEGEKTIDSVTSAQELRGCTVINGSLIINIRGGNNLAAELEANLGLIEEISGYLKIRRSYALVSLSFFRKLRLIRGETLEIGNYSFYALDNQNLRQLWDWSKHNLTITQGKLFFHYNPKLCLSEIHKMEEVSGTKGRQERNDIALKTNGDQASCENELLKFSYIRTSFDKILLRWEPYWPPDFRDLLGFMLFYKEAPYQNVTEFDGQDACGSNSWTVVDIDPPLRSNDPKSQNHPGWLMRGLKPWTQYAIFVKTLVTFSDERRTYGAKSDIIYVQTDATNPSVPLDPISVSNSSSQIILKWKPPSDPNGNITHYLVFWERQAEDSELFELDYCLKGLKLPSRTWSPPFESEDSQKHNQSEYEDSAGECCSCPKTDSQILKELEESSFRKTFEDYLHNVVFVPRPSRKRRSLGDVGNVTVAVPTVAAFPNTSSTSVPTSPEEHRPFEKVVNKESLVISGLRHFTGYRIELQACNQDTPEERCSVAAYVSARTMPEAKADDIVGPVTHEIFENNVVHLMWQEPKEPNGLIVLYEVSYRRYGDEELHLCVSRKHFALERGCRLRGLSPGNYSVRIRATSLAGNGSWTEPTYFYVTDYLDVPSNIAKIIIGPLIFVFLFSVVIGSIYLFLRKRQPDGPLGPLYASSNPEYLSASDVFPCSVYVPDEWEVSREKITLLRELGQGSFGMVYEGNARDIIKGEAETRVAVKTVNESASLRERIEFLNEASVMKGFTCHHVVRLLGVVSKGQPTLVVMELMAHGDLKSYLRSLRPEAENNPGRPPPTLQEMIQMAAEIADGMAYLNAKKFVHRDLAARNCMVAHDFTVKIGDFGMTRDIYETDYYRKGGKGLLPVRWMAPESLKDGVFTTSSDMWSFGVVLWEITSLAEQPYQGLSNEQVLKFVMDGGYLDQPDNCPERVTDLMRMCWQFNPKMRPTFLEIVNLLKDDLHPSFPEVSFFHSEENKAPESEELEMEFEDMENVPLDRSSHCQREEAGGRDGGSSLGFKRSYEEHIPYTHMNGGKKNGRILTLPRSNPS
T1 sequence (P06213 763-1382 partner limits assumed): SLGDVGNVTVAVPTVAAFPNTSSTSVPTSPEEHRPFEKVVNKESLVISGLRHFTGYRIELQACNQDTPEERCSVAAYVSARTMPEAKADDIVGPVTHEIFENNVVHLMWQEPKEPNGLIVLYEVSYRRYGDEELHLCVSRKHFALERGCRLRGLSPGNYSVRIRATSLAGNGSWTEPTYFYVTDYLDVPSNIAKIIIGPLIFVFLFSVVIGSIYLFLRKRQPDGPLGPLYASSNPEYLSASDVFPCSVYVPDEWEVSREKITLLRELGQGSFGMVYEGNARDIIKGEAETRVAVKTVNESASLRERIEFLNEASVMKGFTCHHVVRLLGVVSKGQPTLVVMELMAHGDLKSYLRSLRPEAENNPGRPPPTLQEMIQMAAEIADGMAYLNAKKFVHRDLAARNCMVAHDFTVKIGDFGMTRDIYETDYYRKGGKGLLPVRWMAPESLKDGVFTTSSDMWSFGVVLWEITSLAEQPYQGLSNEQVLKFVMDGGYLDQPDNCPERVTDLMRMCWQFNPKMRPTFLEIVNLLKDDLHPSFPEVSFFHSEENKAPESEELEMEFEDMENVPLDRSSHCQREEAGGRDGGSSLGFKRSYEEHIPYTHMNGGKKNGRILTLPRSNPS
T2 sequence (P06213 28-1370 isoform P06213-2 limits assumed): as the sequence (P06213 28-1370 isoform P06213-2 limits assumed) above
T2 sequence (P06213 763-1382 partner limits assumed): as the sequence (P06213 763-1382 partner limits assumed) above

Molecule `CC(=O)N[C@@H](CO)C(=O)N[C@@H](CC(C)C)C(=O)N[C@@H](CCC(=O)O)C(=O)N[C@@H](CCC(=O)O)C(=O)N[C@@H](CCC(=O)O)C(=O)N[C@@H](Cc1c[nH]c2ccccc12)C(=O)N[C@@H](C)C(=O)N[C@@H](CCC(N)=O)C(=O)N[C@@H](C)C(=O)N[C@@H](CCC(=O)O)C(=O)N[C@H]1CSSC[C@@H](C(=O)N2CCC[C@H]2C(=O)N2CCC[C@H]2C(=O)N[C@@H](CO)C(=O)N[C@@H](CCC(=O)O)C(=O)N[C@@H](CO)C(N)=O)NC(=O)[C@H](CCCNC(=N)N)NC(=O)CNC(=O)[C@H](Cc2ccc(O)cc2)NC(=O)[C@H](C(C)C)NC(=O)[C@H](CCC(=O)O)NC1=O` [Peptide I9A] (Ac-SLEEEWAQAECEVYGRCPPSES-NH2; disulfide 11-17) has a Ki (human IR-A (holoIR-A); [2]) of 952 nM, a Ki (human IR-A (holoIR-A); [3]) of 952 nM and a Ki (human IR-A (holoIR-A); [4]) of 835 nM. For the same molecule, the Ki (human IR-A (holoIR-A); [5]) was 1068 nM, the “hIRA Phosph IC50 Run 1” value [1] was 4745 nM and the “hIRA Phosph IC50 Run 2” value [1] was 4291 nM. For the same molecule, the “hIRA Phosph IC50 Run 3” value [1] was 4550 nM and the IC50 [1] was 4530 nM.
For `CC[C@H](C)[C@H](NC(=O)[C@H](CCC(N)=O)NC(=O)[C@H](C)NC(=O)[C@H](Cc1c[nH]c2ccccc12)NC(=O)[C@H](CCC(=O)O)NC(=O)[C@H](CCC(=O)O)NC(=O)[C@H](CCC(=O)O)NC(=O)[C@H](C)NC(=O)[C@H](CO)NC(C)=O)C(=O)N[C@@H](CCC(=O)O)C(=O)N[C@H]1CSSC[C@@H](C(=O)N2CCC[C@H]2C(=O)N2CCC[C@H]2C(=O)N[C@@H](CO)C(=O)N[C@@H](CCC(=O)O)C(=O)N[C@@H](CO)C(N)=O)NC(=O)[C@H](CCCNC(=N)N)NC(=O)CNC(=O)[C@H](Cc2ccc(O)cc2)NC(=O)[C@H](C(C)C)NC(=O)[C@H](CCC(=O)O)NC1=O` [Peptide L2A] (Ac-SAEEEWAQIECEVYGRCPPSES-NH2; disulfide 11-17), the Ki (human IR-A (holoIR-A); [2]) was > 5000 nM, the Ki (human IR-A (holoIR-A); [3]) was >5000 nM and the Ki (human IR-A (holoIR-A); [4]) was >5000 nM. For the same molecule, the Ki (human IR-A (holoIR-A); [5]) was >5000 nM, the “binding of the mutant peptide to hIR-A (in words)” value (human IR-A (holoIR-A); alanine substitution in IM172N22(-)) was “no detectable binding” and the “hIRA Phosph IC50 Run 1” value [1] was 7523 nM. For the same molecule, the “hIRA Phosph IC50 Run 2” value [1] was 7642 nM, the “hIRA Phosph IC50 Run 3” value [1] was 7687 nM and the IC50 [1] was 7620 nM.
For `CC[C@H](C)[C@H](NC(=O)[C@H](CCC(N)=O)NC(=O)[C@H](C)NC(=O)[C@H](Cc1c[nH]c2ccccc12)NC(=O)[C@H](CCC(=O)O)NC(=O)[C@H](CCC(=O)O)NC(=O)[C@H](CCC(=O)O)NC(=O)[C@H](CC(C)C)NC(=O)[C@H](CO)NC(C)=O)C(=O)N[C@@H](CCC(=O)O)C(=O)N[C@H]1CSSC[C@@H](C(=O)N[C@@H](C)C(=O)N2CCC[C@H]2C(=O)N[C@@H](CO)C(=O)N[C@@H](CCC(=O)O)C(=O)N[C@@H](CO)C(N)=O)NC(=O)[C@H](CCCNC(=N)N)NC(=O)CNC(=O)[C@H](Cc2ccc(O)cc2)NC(=O)[C@H](C(C)C)NC(=O)[C@H](CCC(=O)O)NC1=O` [Peptide P18A] (Ac-SLEEEWAQIECEVYGRCAPSES-NH2; disulfide 11-17), the Ki (human IR-A (holoIR-A); [2]) was 23.1 nM, the Ki (human IR-A (holoIR-A); [3]) was 20.6 nM and the Ki (human IR-A (holoIR-A); [4]) was 21.2 nM. For the same molecule, the Ki (human IR-A (holoIR-A); [5]) was 27.3 nM, the “reduction in ki for hIR-A on substitution” value (shortened to “reduction in ki”) (human IR-A (holoIR-A)) was “lower than 5 fold” and the “hIRA Phosph IC50 Run 1” value [1] was 158 nM. The “hIRA Phosph IC50 Run 2” value [1] was 143 nM, the “hIRA Phosph IC50 Run 3” value [1] was 123 nM and the IC50 [1] was 141 nM.
`CC[C@H](C)[C@H](NC(=O)[C@H](CCC(N)=O)NC(=O)[C@H](C)NC(=O)[C@H](Cc1c[nH]c2ccccc12)NC(=O)[C@H](CCC(=O)O)NC(=O)[C@H](CCC(=O)O)NC(=O)[C@H](CCC(=O)O)NC(=O)[C@H](CC(C)C)NC(=O)[C@H](CO)NC(C)=O)C(=O)N[C@@H](CCC(=O)O)C(=O)N[C@H]1CSSC[C@@H](C(=O)N2CCC[C@H]2C(=O)N[C@@H](C)C(=O)N[C@@H](CO)C(=O)N[C@@H](CCC(=O)O)C(=O)N[C@@H](CO)C(N)=O)NC(=O)[C@H](CCCNC(=N)N)NC(=O)CNC(=O)[C@H](Cc2ccc(O)cc2)NC(=O)[C@H](C(C)C)NC(=O)[C@H](CCC(=O)O)NC1=O` [Peptide P19A] (Ac-SLEEEWAQIECEVYGRCPASES-NH2; disulfide 11-17) gave a Ki (human IR-A (holoIR-A); [2]) of 14 nM, a Ki (human IR-A (holoIR-A); [3]) of 13.0 nM and a Ki (human IR-A (holoIR-A); [4]) of 12.9 nM. For the same molecule, the Ki (human IR-A (holoIR-A); [5]) was 16.2 nM, the “reduction in ki” value (human IR-A (holoIR-A)) was “lower than 5 fold” and the “hIRA Phosph IC50 Run 1” value [1] was 172 nM. For the same molecule, the “hIRA Phosph IC50 Run 2” value [1] was 109 nM, the “hIRA Phosph IC50 Run 3” value [1] was 148 nM and the IC50 [1] was 143 nM.
`CC[C@H](C)[C@H](NC(=O)[C@H](C)NC(=O)[C@H](C)NC(=O)[C@H](Cc1c[nH]c2ccccc12)NC(=O)[C@H](CCC(=O)O)NC(=O)[C@H](CCC(=O)O)NC(=O)[C@H](CCC(=O)O)NC(=O)[C@H](CC(C)C)NC(=O)[C@H](CO)NC(C)=O)C(=O)N[C@@H](CCC(=O)O)C(=O)N[C@H]1CSSC[C@@H](C(=O)N2CCC[C@H]2C(=O)N2CCC[C@H]2C(=O)N[C@@H](CO)C(=O)N[C@@H](CCC(=O)O)C(=O)N[C@@H](CO)C(N)=O)NC(=O)[C@H](CCCNC(=N)N)NC(=O)CNC(=O)[C@H](Cc2ccc(O)cc2)NC(=O)[C@H](C(C)C)NC(=O)[C@H](CCC(=O)O)NC1=O` [Peptide Q8A] (Ac-SLEEEWAAIECEVYGRCPPSES-NH2; disulfide 11-17) was tested, and the Ki (human IR-A (holoIR-A); [2]) was 6.05 nM, the Ki (human IR-A (holoIR-A); [3]) was 5.17 nM and the Ki (human IR-A (holoIR-A); [4]) was 6.67 nM. The Ki (human IR-A (holoIR-A); [5]) was 6.31 nM, the “reduction in ki” value (human IR-A (holoIR-A)) was “lower than 5 fold” and the “hIRA Phosph IC50 Run 1” value [1] was 84 nM. For the same molecule, the “hIRA Phosph IC50 Run 2” value [1] was 92 nM, the “hIRA Phosph IC50 Run 3” value [1] was 99 nM and the IC50 [1] was 91.9 nM.
With `CC[C@H](C)[C@H](NC(=O)[C@H](CCC(N)=O)NC(=O)[C@H](C)NC(=O)[C@H](Cc1c[nH]c2ccccc12)NC(=O)[C@H](CCC(=O)O)NC(=O)[C@H](CCC(=O)O)NC(=O)[C@H](CCC(=O)O)NC(=O)[C@H](CC(C)C)NC(=O)[C@H](CO)NC(C)=O)C(=O)N[C@@H](CCC(=O)O)C(=O)N[C@H]1CSSC[C@@H](C(=O)N2CCC[C@H]2C(=O)N2CCC[C@H]2C(=O)N[C@@H](CO)C(=O)N[C@@H](CCC(=O)O)C(=O)N[C@@H](CO)C(N)=O)NC(=O)[C@H](C)NC(=O)CNC(=O)[C@H](Cc2ccc(O)cc2)NC(=O)[C@H](C(C)C)NC(=O)[C@H](CCC(=O)O)NC1=O` [Peptide R16A] (Ac-SLEEEWAQIECEVYGACPPSES-NH2; disulfide 11-17) the Ki (human IR-A (holoIR-A); [2]) was 228 nM, the Ki (human IR-A (holoIR-A); [3]) was 211 nM and the Ki (human IR-A (holoIR-A); [4]) was 237 nM. For the same molecule, the Ki (human IR-A (holoIR-A); [5]) was 235 nM, the “hIRA Phosph IC50 Run 1” value [1] was 583 nM and the “hIRA Phosph IC50 Run 2” value [1] was 517 nM. For the same molecule, the “hIRA Phosph IC50 Run 3” value [1] was 744 nM and the IC50 [1] was 615 nM.

— article PMC9519552, “Activation of the human insulin receptor by non-insulin-related peptides” (Nature Communications, 2022)
